Experiments:
KB [1] = test: Growth inhibition of human KB cells xenografted in NCr nu/nu mouse at 25 to 100 mg/kg, sc once daily administered from day 3 to 6 after implantation measured on day 7 by MTT-based hollow-fiber test; format: functional; settings: route subcutaneous
KB [2] = test: Growth inhibition of human KB cells xenografted in NCr nu/nu mouse at 25 to 100 mg/kg, ip once daily administered from day 3 to 6 after implantation measured on day 7 by MTT-based hollow-fiber test; format: functional; settings: route intraperitoneal
LNCaP [3] = test: Growth inhibition of human LNCAP cells xenografted in NCr nu/nu mouse at 25 to 100 mg/kg, ip once daily administered from day 3 to 6 after implantation measured on day 7 by MTT-based hollow-fiber test; format: functional; settings: route intraperitoneal
LNCaP [4] = test: Growth inhibition of human LNCAP cells xenografted in NCr nu/nu mouse at 25 to 100 mg/kg, sc once daily administered from day 3 to 6 after implantation measured on day 7 by MTT-based hollow-fiber test; format: functional; settings: route subcutaneous
LNCaP [5] = test: Growth inhibition of human LNCAP cells xenografted in ip dosed NCr nu/nu mouse administered once daily from day 3 to 6 after implantation measured on day 7 by MTT-based hollow-fiber test; format: functional
MCF7 [6] = test: Growth inhibition of human MCF7 cells xenografted in NCr nu/nu mouse at 6.25 to 50 mg/kg, sc once daily administered from day 3 to 6 after implantation measured on day 7 by MTT-based hollow-fiber test; format: functional; settings: dose mg/kg 3-6; route subcutaneous
MCF7 [7] = test: Growth inhibition of human MCF7 cells xenografted in NCr nu/nu mouse at 6.25 to 50 mg/kg, ip once daily administered from day 3 to 6 after implantation measured on day 7 by MTT-based hollow-fiber test; format: functional; settings: dose mg/kg 3-6; route intraperitoneal
KB [8] = test: Growth inhibition of human KB cells xenografted in NCr nu/nu mouse at 0.195 to 1.56 mg/kg, sc once daily administered from day 3 to 6 after implantation measured on day 7 by MTT-based hollow-fiber test; format: functional; settings: route subcutaneous
Col2 [9] = test: Growth inhibition of human Col2 cells xenografted in NCr nu/nu mouse at 0.195 to 1.56 mg/kg, ip once daily administered from day 3 to 6 after implantation measured on day 7 by MTT-based hollow-fiber test; format: functional; settings: route intraperitoneal
KB [10] = test: Growth inhibition of human KB cells xenografted in NCr nu/nu mouse at 0.195 to 1.56 mg/kg, ip once daily administered from day 3 to 6 after implantation measured on day 7 by MTT-based hollow-fiber test; format: functional; settings: route intraperitoneal
Col2 [11] = test: Growth inhibition of human Col2 cells xenografted in NCr nu/nu mouse at 0.195 to 1.56 mg/kg, sc once daily administered from day 3 to 6 after implantation measured on day 7 by MTT-based hollow-fiber test; format: functional; settings: route subcutaneous
Col2 [12] = test: Growth inhibition of human Col2 cells xenografted in ip dosed NCr nu/nu mouse administered once daily from day 3 to 6 after implantation measured on day 7 by MTT-based hollow-fiber test; format: functional
LNCaP [13] = test: Growth inhibition of human LNCAP cells xenografted in NCr nu/nu mouse at 0.195 to 1.56 mg/kg, sc once daily administered from day 3 to 6 after implantation measured on day 7 by MTT-based hollow-fiber test; format: functional; settings: route subcutaneous
LNCaP [14] = test: Growth inhibition of human LNCAP cells xenografted in NCr nu/nu mouse at 0.195 to 1.56 mg/kg, ip once daily administered from day 3 to 6 after implantation measured on day 7 by MTT-based hollow-fiber test; format: functional; settings: route intraperitoneal
LNCaP [15] = test: Growth inhibition of human LNCAP cells xenografted in NCr nu/nu mouse at 10 to 40 mg/kg, sc once daily administered from day 3 to 6 after implantation measured on day 7 by MTT-based hollow-fiber test; format: functional; settings: route subcutaneous
LNCaP [16] = test: Growth inhibition of human LNCAP cells xenografted in NCr nu/nu mouse at 10 to 40 mg/kg, ip once daily administered from day 3 to 6 after implantation measured on day 7 by MTT-based hollow-fiber test; format: functional; settings: route intraperitoneal
LNCaP [17] = test: Growth inhibition of human LNCAP cells xenografted in NCr nu/nu mouse at 5 to 20 mg/kg, sc once daily administered from day 3 to 6 after implantation measured on day 7 by MTT-based hollow-fiber test; format: functional; settings: route subcutaneous
LNCaP [18] = test: Growth inhibition of human LNCAP cells xenografted in NCr nu/nu mouse at 5 to 20 mg/kg, ip once daily administered from day 3 to 6 after implantation measured on day 7 by MTT-based hollow-fiber test; format: functional; settings: route intraperitoneal
LNCaP [19] = test: Growth inhibition of human LNCAP cells xenografted in NCr nu/nu mouse at 0.625 to 5 mg/kg, ip once daily administered from day 3 to 6 after implantation measured on day 7 by MTT-based hollow-fiber test; format: functional; settings: route intraperitoneal
MCF7 [20] = test: Growth inhibition of human MCF7 cells xenografted in NCr nu/nu mouse at 0.625 to 5 mg/kg, ip once daily administered from day 3 to 6 after implantation measured on day 7 by MTT-based hollow-fiber test; format: functional; settings: dose mg/kg 3-6; route intraperitoneal
MCF7 [21] = test: Growth inhibition of human MCF7 cells xenografted in NCr nu/nu mouse at 0.625 to 5 mg/kg, sc once daily administered from day 3 to 6 after implantation measured on day 7 by MTT-based hollow-fiber test; format: functional; settings: dose mg/kg 3-6; route subcutaneous
MCF7 [22] = test: Growth inhibition of human MCF7 cells xenografted in ip dosed NCr nu/nu mouse administered once daily from day 3 to 6 after implantation measured on day 7 by MTT-based hollow-fiber test; format: functional
Lu1 [23] = test: Growth inhibition of human Lu1 cells xenografted in NCr nu/nu mouse at 0.625 to 5 mg/kg, ip once daily administered from day 3 to 6 after implantation measured on day 7 by MTT-based hollow-fiber test; format: functional; settings: dose mg/kg 3-6; route intraperitoneal
[24] = Acute toxicity in ip dosed mouse; format: organism-based; settings: in vivo
Lu1 [25] = test: Growth inhibition of human Lu1 cells xenografted in NCr nu/nu mouse at 0.625 to 5 mg/kg, sc once daily administered from day 3 to 6 after implantation measured on day 7 by MTT-based hollow-fiber test; format: functional; settings: dose mg/kg 3-6; route subcutaneous
LNCaP [26] = test: Growth inhibition of human LNCAP cells xenografted in NCr nu/nu mouse at 0.625 to 5 mg/kg, sc once daily administered from day 3 to 6 after implantation measured on day 7 by MTT-based hollow-fiber test; format: functional; settings: route subcutaneous
Lu1 [27] = test: Growth inhibition of human Lu1 cells xenografted in ip dosed NCr nu/nu mouse administered once daily from day 3 to 6 after implantation measured on day 7 by MTT-based hollow-fiber test; format: functional

C[C@]12CC[C@]3(O)C[C@@]1(CC[C@@H]1[C@@]4(C)CCC[C@]12OC4=O)C(=O)C3=O
growth inhibition (GI) (KB [1]): 0% | growth inhibition (GI) (KB [2]): 0% | growth inhibition (GI) (LNCaP [3]): 0% | growth inhibition (GI) (LNCaP [4]): 0% | ED50 (LNCaP [5]): 4500 nM

CCCCCCCCCCCCC[C@@H]1C[C@@H](O)C[C@]2(CCC3(C=CC(=O)C=C3)O2)O1 [ACULEATIN A]
growth inhibition (GI) (MCF7 [6]): 0% | growth inhibition (GI) (MCF7 [7]): 10%

CC(=O)O[C@@H]1O[C@@H]([C@H]2c3cccc(O)c3C(=O)c3c(O)cc(C)cc32)[C@H](O)[C@@H](O)[C@H]1O [ALVARADOIN E]
growth inhibition (GI) (KB [8]): 5% | growth inhibition (GI) (Col2 [9]): 31% | growth inhibition (GI) (KB [10]): 40% | growth inhibition (GI) (Col2 [11]): 6% | ED50 (Col2 [12]): 230 nM | growth inhibition (GI) (LNCaP [13]): 10% | ED50 (LNCaP [5]): 140 nM | growth inhibition (GI) (LNCaP [14]): 60%

CC(=O)O[C@H]1O[C@H]([C@@H]2c3cccc(O)c3C(=O)c3c(O)cc(C)cc32)[C@H](O)[C@@H](O)[C@H]1O [ALVARADOIN F]
growth inhibition (GI) (KB [8]): 2% | growth inhibition (GI) (Col2 [9]): 21% | growth inhibition (GI) (KB [10]): 32% | growth inhibition (GI) (Col2 [11]): 1% | ED50 (Col2 [12]): 230 nM | growth inhibition (GI) (LNCaP [13]): 3% | ED50 (LNCaP [5]): 120 nM | growth inhibition (GI) (LNCaP [14]): 59%

COc1ccc([C@H]2COc3c(ccc4c3C=CC(C)(CCC=C(C)C)O4)C2)c(O)c1O (some centres undefined) [NITIDULIN]
growth inhibition (GI) (LNCaP [15]): 0% | growth inhibition (GI) (LNCaP [16]): 54% | ED50 (LNCaP [5]): 9700 nM

O=C1OC[C@@H]2Cc3cc4c(cc3[C@@H](c3ccc5c(c3)OCO5)[C@H]12)OCO4 [PICROPOLYGAMAIN]
growth inhibition (GI) (LNCaP [17]): 3% | growth inhibition (GI) (LNCaP [18]): 21% | ED50 (LNCaP [5]): 3100 nM

COC(=O)[C@H]1[C@@H](O)[C@@]2(O)c3c(OC)cc(O[C@@H]4O[C@@H]([C@H](O)CO)CO[C@H]4OC)cc3O[C@@]2(c2ccc(OC)cc2)[C@@H]1c1ccccc1 [SILVESTROL]
growth inhibition (GI) (LNCaP [19]): 15% | growth inhibition (GI) (MCF7 [20]): 20% | growth inhibition (GI) (MCF7 [21]): 5% | ED50 (MCF7 [22]): 1.5 nM | growth inhibition (GI) (Lu1 [23]): 12% | MTD [24]: 2.5 mg/kg | growth inhibition (GI) (Lu1 [25]): 0% | growth inhibition (GI) (LNCaP [26]): 12% | ED50 (LNCaP [5]): 1.5 nM | ED50 (Lu1 [27]): 1.2 nM
